This note sets out measurements from ChEMBL document CHEMBL2069220, “Targeting peroxisome proliferator-activated receptors (PPARs): development of modulators” (J Med Chem, 2012).

SMILES strings stand for the structures.

The target of assay [1] is T1, Peroxisome proliferator-activated receptor gamma (Homo sapiens, UniProt P37231).
T1 sequence (P37231 whole entry): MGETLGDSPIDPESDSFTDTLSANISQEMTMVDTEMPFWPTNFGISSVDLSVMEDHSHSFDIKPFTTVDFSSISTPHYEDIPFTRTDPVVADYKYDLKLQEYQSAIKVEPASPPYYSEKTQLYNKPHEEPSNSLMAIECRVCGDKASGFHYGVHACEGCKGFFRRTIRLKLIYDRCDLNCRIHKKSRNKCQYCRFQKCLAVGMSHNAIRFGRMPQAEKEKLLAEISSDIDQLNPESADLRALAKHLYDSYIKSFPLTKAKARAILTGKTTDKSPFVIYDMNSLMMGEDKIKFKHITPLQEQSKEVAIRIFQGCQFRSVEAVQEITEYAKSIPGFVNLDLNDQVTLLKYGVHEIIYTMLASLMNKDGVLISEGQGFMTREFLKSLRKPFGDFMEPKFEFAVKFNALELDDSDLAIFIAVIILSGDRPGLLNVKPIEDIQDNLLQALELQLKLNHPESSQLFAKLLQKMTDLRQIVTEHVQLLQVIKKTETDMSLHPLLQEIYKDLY
Briefly: Binding affinity to PPARgamma.

The species named for assay [2] is Homo sapiens. The assay can be described thus: Selectivity ratio for PPRalpha over PPRgamma.
For assay [3], the species on record is Homo sapiens. Briefly: Selectivity ratio for PPRbeta/delta over PPRgamma.
The target of assay [4] is T2, Peroxisome proliferator-activated receptor alpha (Homo sapiens, UniProt Q07869).
T2 sequence (Q07869 whole entry): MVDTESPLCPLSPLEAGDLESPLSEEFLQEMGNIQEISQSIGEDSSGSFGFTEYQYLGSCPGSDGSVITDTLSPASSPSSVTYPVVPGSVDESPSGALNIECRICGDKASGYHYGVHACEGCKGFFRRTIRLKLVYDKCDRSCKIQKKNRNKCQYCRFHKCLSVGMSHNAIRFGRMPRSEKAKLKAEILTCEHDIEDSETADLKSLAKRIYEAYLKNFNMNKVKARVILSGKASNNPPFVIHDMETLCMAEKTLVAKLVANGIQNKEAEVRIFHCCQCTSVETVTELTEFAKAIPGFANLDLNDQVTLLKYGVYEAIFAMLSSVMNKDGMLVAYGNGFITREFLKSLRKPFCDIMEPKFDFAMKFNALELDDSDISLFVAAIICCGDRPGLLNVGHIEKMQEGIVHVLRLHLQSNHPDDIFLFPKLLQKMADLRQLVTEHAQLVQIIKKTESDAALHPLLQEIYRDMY
Briefly: Agonist activity at PPARalpha. The class given is functional.

For assay [5], the species on record is Homo sapiens. Briefly: Selectivity ratio for human PPRalpha over human PPRbeta/delta.
The species named for assay [6] is Homo sapiens. Briefly: Selectivity ratio for human PPRgamma over human PPRbeta/delta.
The species named for assay [7] is Mus musculus. The assay can be described thus: Selectivity ratio for mouse PPRalpha over mouse PPRbeta/delta.
For assay [8], the species on record is Mus musculus. Briefly: Selectivity ratio for mouse PPRgamma to mouse PPRbeta/delta.

In assay [1], `CCCCCC(O)/C=C\C=C/CCCCCCCC(=O)O` (stereo not drawn) displayed a dissociation constant Kd of 2000 nM.
On the same count and under the same terms, to `CC/C=C\C/C=C\C/C=C\C/C=C\C/C=C\CCCC(=O)O` [ICOSAPENT] belongs 2000 nM.
Regarding `COC(=O)c1ccccc1N[C@@H](Cc1ccc(OCCc2nc(-c3ccccc3)oc2C)cc1)C(=O)O`, the Selectivity ratio in the assay listed under Homo sapiens [2] and in the assay listed under Homo sapiens [3] was more than 1000 in each case.
On to `CC(C)(Oc1ccc(CCOc2ccc(/C=C/C(=O)c3cc(Cl)ccc3O)cc2)cc1)C(=O)O`, for which a half-maximal response in assay [4] (EC50) required 60 nM.
For `CN(CCOc1ccc(C[C@H](Nc2ccccc2C(=O)c2ccccc2)C(=O)O)cc1)c1ccccn1`, the Selectivity ratio in the assay filed under Homo sapiens [2] and in the assay listed under Homo sapiens [3] was more than 1000 in each case.
With `CCCCC/C=C/C=C1/C(=O)C=C[C@@H]1C/C=C\CCCC(=O)O`, in assay [1], binding was characterised by a dissociation constant (Kd) of 2000 nM.
Still for that read-out and setting: with `CCCCC/C=C\C=C\C(O)CCCCCCCC(=O)O` (stereo not drawn) the figure was 2000 nM.
For `CCCc1c(OCCCOc2ccc(OCC(=O)O)cc2)ccc(C(C)=O)c1O`, the Selectivity ratio in the assay filed under Homo sapiens [5], in the assay filed under Homo sapiens [6], in the assay listed under Mus musculus [7] and in the assay filed under Mus musculus [8] was more than 100 each time.
